A short description of series [1]: AUCinfinity in male CD-1 mouse at 1 mg/kg, iv measured after 8 hrs by LC-MS/MS analysis. The class given is ADME, organism-based. Conditions: in vivo.
In series [2] the target is Voltage-gated inwardly rectifying potassium channel KCNH2 (Homo sapiens, UniProt Q12809). Nature of the series: Inhibition of hERG expressed in CHO cells. The class given is toxicity, cell-based.
The nature of series [3]: Inhibition of His6-tagged MEN1 458-551 deletion A5T mutant (2 to 583 residues)/MLL (unknown origin) transfected in Escherichia coli BL21 (DE3) protein-protein interaction by TR-FRET assay. Set-up: species or system Homo sapiens.
Series [4] deals with MV4-11. Nature of the series: Antiproliferative activity against human MV4-11 cells assessed as cell growth inhibition measured after 7 days by CellTiter-Glo assay. The class given is functional, cell-based. The conditions noted are these: MV4-11, 168 h.
Series [5] is described as follows: Volume of distribution at steady state in male CD-1 mouse at 1 mg/kg, iv measured after 8 hrs by LC-MS/MS analysis. The class given is ADME, organism-based. The conditions noted are these: in vivo, read-out: Vdss.
The nature of series [6]: Half life in male CD-1 mouse at 1 mg/kg, iv measured after 8 hrs by LC-MS/MS analysis. The class given is ADME, organism-based. The conditions noted are these: in vivo.
Series [7] is described as follows: Oral bioavailability in male CD-1 mouse at 30 mg/kg measured after 8 hrs by LC-MS/MS analysis. The conditions noted are these: in vivo. The class given is ADME, organism-based.
In series [8] the target is Cytochrome P450 3A4 (Homo sapiens, UniProt P08684). The experiment in a line: Inhibition of CYP3A4 (unknown origin) using midazolam as substrate. The class given is ADME.
Sequence of Cytochrome P450 3A4 (P08684 whole entry): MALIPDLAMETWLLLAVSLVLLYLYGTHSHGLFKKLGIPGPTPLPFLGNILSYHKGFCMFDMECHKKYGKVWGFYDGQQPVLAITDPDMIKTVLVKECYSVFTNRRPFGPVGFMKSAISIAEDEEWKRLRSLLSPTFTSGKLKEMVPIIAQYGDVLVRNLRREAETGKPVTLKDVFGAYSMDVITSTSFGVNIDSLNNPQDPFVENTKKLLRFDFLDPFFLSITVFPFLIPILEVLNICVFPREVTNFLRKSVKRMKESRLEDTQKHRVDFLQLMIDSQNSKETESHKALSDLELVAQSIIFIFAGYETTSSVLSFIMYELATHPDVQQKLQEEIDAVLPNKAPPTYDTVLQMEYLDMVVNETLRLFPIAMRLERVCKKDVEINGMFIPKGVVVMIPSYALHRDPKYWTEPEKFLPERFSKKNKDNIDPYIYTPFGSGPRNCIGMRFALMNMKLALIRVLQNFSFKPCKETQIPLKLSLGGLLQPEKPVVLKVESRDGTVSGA
Series [9] in a line: Hepatic extraction ratio in male CD-1 mouse at 1 mg/kg, iv measured after 8 hrs by LC-MS/MS analysis. The class given is ADME, organism-based. Conditions: in vivo, read-out: ERH.
Series [10] in a line: Clearance in male CD-1 mouse at 1 mg/kg, iv measured after 8 hrs by LC-MS/MS analysis. Conditions: in vivo. The class given is ADME, organism-based.
The nature of series [11]: Apparent permeability across apical to basolateral side in MDR1 knockout dog MDCKII cells incubated for 2 hrs by LC-MS/MS analysis. The class given is ADME, cell-based, Canis lupus familiaris, MDCK-II. The conditions noted are these: MDCK.
A short description of series [12]: Drug excretion in male Sprague-Dawley rat urine at 3 mg/kg, iv measured after 8 hrs by LC-MS/MS analysis. The class given is ADME, organism-based. Conditions: read-out: Drug excretion.
A short description of series [13]: Metabolic stability in human hepatocytes assessed as clearance by LC-MS analysis. The class given is ADME, cell-based, Hepatocyte. The conditions noted are these: read-out: CLH.
Series [14] in a line: Cmax in male CD-1 mouse at 30 mg/kg, po measured after 8 hrs by LC-MS/MS analysis. The class given is ADME, organism-based. Conditions: in vivo.

pIC50: −log10 of the molar value.

Consider one compound from ChEMBL document CHEMBL6103599, “Design of Potent Menin-KMT2A Interaction Inhibitors with Improved In Vitro ADME Properties and Reduced hERG Affinity” (ACS Med Chem Lett, 2025).

Sequence of Voltage-gated inwardly rectifying potassium channel KCNH2 (Q12809 whole entry, the tested form may be a part): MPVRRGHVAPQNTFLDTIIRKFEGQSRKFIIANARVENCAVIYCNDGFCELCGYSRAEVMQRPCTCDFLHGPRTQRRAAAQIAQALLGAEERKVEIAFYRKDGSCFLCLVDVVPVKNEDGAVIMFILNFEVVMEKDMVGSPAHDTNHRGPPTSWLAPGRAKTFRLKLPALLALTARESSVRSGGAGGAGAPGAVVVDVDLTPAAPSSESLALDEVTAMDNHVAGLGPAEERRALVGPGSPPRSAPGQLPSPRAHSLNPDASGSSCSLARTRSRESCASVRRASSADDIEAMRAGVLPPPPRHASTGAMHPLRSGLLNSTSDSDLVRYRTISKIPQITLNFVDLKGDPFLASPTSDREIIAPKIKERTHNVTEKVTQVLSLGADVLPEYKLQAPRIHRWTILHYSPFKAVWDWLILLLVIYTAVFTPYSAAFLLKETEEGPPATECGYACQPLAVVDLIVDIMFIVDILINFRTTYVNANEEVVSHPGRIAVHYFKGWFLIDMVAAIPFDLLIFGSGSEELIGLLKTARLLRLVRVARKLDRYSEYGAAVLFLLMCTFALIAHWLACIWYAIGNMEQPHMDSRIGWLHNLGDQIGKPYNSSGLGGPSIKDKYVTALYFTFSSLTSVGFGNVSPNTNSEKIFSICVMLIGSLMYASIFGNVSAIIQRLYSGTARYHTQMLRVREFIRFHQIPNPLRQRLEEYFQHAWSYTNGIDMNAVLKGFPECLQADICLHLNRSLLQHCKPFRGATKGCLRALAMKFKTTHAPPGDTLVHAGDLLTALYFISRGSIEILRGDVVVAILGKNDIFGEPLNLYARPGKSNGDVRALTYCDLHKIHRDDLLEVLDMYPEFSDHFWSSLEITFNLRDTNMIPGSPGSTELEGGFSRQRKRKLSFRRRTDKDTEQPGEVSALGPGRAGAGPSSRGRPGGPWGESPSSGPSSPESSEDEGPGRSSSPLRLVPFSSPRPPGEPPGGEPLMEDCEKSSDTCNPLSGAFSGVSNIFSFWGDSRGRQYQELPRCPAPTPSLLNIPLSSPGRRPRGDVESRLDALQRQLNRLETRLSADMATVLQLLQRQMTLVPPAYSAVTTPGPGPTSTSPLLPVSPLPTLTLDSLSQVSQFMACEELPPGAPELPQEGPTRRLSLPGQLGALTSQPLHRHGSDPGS

In the case of `CC1(CN2CCC3(CC2)CN(c2ncnnc2Oc2ccc(F)cc2C(=O)N2C4CCC2COC4)C3)CC1`, in series [1], the AUC(0-inf) was 342 ng·h/mL. Also, the pIC50 in series [2] was 4.19; in series [3] it was 8.10; in [4] it was 7.13; in series [8], < 4.30. In series [5], the Vd was 4.34 L/kg. In series [6], this compound had a half-life of 1.68 h. Besides, the bioavailability in series [7] stood at 74%. Besides, the hepatic extraction ratio at 8 h in [9] was 0.541. Moreover, the clearance in series [10] was 48.7 mL/min/kg. Moreover, the apparent permeability from apical to basolateral (Papp A→B) at 2 h in series [11] was 3 ×10⁻⁶ cm/s. Further, the dose excreted at 8 h in [12] came to 22%. For the same compound, the CLint scaled in [13] was 5 mL/min/kg. Besides, in series [14], the Cmax worked out at 5000 ng/mL.
